How the values were obtained:
[1] = test system: dd male mice; assay: Acute Toxicity Test (minimum lethal dose, MLD); assay type: in vivo
Experimental: A test compound was given to dd male mice weighing 20±1 g (3 mice per group) per os. (p.o.; 300 mg/kg) or intraperitoneally (i.p.; 100 mg/kg). The mortality after 7 days from the administration was considered to determine the minimum lethal dose (MLD).

[2] = target: T1, thromboxane synthase (TXA2 synthase), bovine platelet microsome (Bos taurus, UniProt Q2KIG5); assay: Test on Inhibition of TXA2 Biosynthesis (bovine platelet microsome, TXB2 by radioimmunoassay); assay type: biochemical; conditions: bovine platelet microsome, pH 7.4, prostaglandin H2 substrate
T1 construct: bovine platelet microsome; from tissue; host or cells: bovine platelets (microsome)
T1 sequence (Q2KIG5 1-533): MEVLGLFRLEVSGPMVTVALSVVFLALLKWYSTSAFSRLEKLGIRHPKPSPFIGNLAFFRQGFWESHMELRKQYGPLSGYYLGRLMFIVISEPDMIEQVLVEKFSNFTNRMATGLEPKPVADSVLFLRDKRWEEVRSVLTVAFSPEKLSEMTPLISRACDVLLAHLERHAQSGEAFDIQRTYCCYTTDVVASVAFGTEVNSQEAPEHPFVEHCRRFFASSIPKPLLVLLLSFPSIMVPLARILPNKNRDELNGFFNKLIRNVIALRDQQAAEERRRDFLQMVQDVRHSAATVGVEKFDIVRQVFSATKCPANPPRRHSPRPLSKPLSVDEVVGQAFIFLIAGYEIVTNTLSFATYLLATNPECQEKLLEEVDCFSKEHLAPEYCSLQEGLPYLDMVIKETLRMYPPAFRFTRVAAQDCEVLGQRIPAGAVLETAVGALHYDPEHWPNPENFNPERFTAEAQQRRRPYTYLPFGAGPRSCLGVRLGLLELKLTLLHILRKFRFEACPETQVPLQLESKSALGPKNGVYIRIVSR
Experimental: A mixture of 70 μl of bovine platelet microsome [protein: 40 μg; 100 mM tris-HCl buffer (pH=7.4)] and 10 μl of a test compound solution (100 mM tris-HCl buffer containing 10% methanol) was allowed to stand at 0° C. for 5 minutes, and 20 μl of a prostaglandin H2 solution (100 mM tris-HCl buffer supplemented with acetone containing 0.1 nmol of prostaglandin H2) was added thereto as a substrate.
The amount of thromboxane B2 (TXB2) (stable degradation product of TXA2) produced in the system was determined by radioimmunoassay [F. A. Fitzpatrick et al., Methods in Enzymology, Vol. 86, p.286 (1982)].
Inhibition of TXB2 synthesis was evaluated by IC50 (50% inhibitory concentration) or percent inhibition as calculated from equation described below, and the results obtained are shown in Table 1. [formula]

[3] = test system: silver nitrate-induced arteriothromboembolia in male Wistar-Shizuoka rats; assay: Test on Inhibition of Silver Nitrate-Induced Arteriothromboembolia in Rats; assay type: in vivo; conditions: for Number of Obstruction Case/Number of Experiments: control 23/26; for Percent Obstruction: control 88%; for percent obstruction vs control (in words): I-12Z 0.3, 1.0, or 3.0 mg/kg, I-13E 3 mg/kg
Source text: Male Wistar -Shizuoka rats weighing 270±20 g were anesthetized with urethane (1.5 g/kg) intraperitoneally. Each animal was fixed on its back, and a venous cannula and an arterial cannula were inserted into the left carotid vein and the left femoral artery, respectively. An abdominal incision was made, the intestinal tract was put aside so that the descending abdominal aorta could be seen, the surrounding connective tissues were removed, the descending aorta was detached to a length of about 1 cm, and the detached descending aorta was put on a globe of 8 cm in diameter. A solvent (0.1 ml; physiological saline containing 0.05N sodium hydroxide) or a drug solution (0.1 ml) in the solvent was injected via the cannulated carotid vein per 100 g of body weight. Three minutes later, a 30% silver nitrate aqueous solution was dropped on the detached descending abdominal aorta. Five minutes later, the globe was removed, and the affected site was washed three times with physiological saline to stop the reaction. After the elapse of 30 minutes from the stopping of the reaction, the blood pressure of the femoral artery was measured, and the pressure fall was taken as an indication of obstruction of the descending arterial. Significance of the difference in degree of the obstruction between the control group (only the solvent was administered) and the test group was assayed by X^2 -assay.

[4] = test system: collagen-induced ischemic ECG alterations in spontaneous hypertensive rats (SHR); assay: Test On Inhibition of Collagen-Induced Ischemic Alterations of Electrocardiogram; assay type: in vivo; conditions: 1 mg/kg, iv; for Change of ECG (score 0-3): mean ± standard error, N = 5 to 6
Experimental: Spontaneous hypertensive rats (SHR) (male; 25-30-week-old; available from Hoshino Jikken Dobutsu) were intraperitoneally anesthesized with sodium pentobarbital (60 mg/kg). Each animal was fixed on its back, a venous cannula was inserted into the left jugular vein, and electrocardiograms (ECG) in extremity leads II were taken. A solvent alone (physiological saline containing 0.05N sodium hydroxide) or the test compound (I-12Z or I-13E) dissolved in the same solvent was intravenously administered in an amount of 0.1 ml per 100 g of body weight. Three minutes later, 4.5 mg/kg of collagen III originating from the bovine skin was intravenously injected, and the changes of the ECG were observed over 10 minutes. The ischemic ECG alterations after the intravenous injection of collagen were scored based on the following system according to the method of Matsumura et al., Folia Pharmacol., Japon, and the significance of difference in scores of the control group receiving the solvent alone and the test group was examined by the U-test of Mann-Whitney.
0 . . . Changes of 0.05 mV or less in the S-T segment or the T wave
1 . . . Changes between 0.05 and 0.1 mV in the S-T segment or the T wave
2 . . . Changes of 0.1 mV or more in the S-T segment or the T wave
3 . . . Arrythmia or cardiac arrest

[5] = dd male mice, mortality after 7 days
[6] = 0.5 min after collagen injection
[7] = 10 min after collagen injection

SMILES | Acute Toxicity (MLD) ip [1, 5] | IC50 [2] | Number of Obstruction Case/Number of Experiments ([3]; 1.0 mg/kg i.v.) | Percent Obstruction ([3]; 1.0 mg/kg i.v.) | Number of Obstruction Case/Number of Experiments ([3]; 3.0 mg/kg i.v.) | Percent Obstruction ([3]; 3.0 mg/kg i.v.) | percent obstruction vs control (in words) ([3]; i.v.) | ECG changes vs control (in words) [4] | Change of ECG (score 0-3) [4, 6] | Change of ECG (score 0-3) ([4]; 1 min after collagen injection) | Change of ECG (score 0-3) ([4]; 2 min after collagen injection) | Change of ECG (score 0-3) ([4]; 3 min after collagen injection) | Change of ECG (score 0-3) ([4]; 4 min after collagen injection) | Change of ECG (score 0-3) ([4]; 5 min after collagen injection) | Change of ECG (score 0-3) ([4]; 6 min after collagen injection) | Change of ECG (score 0-3) ([4]; 7 min after collagen injection) | Change of ECG (score 0-3) ([4]; 8 min after collagen injection) | Change of ECG (score 0-3) ([4]; 9 min after collagen injection) | Change of ECG (score 0-3) [4, 7] | also measured
CN1C(=O)c2ccncc2/C(=C\CCCCC(=O)O)c2ccccc21 [Compound I-12Z, (Z)-11-(5-carboxypentylidene)-6-methyl-5,11-dihydropyrido[4,3-c][1]benzazepin-5(6H)-one] | > 100 mg/kg | 34 nM | 0/5 | 0% | 1/5 | 20% | significantly lower than that of the control group | significantly smaller than those in the control groups | 0.8 ± 0.5 | 0.5 ± 0.2 | 1.0 ± 0.4 | 0.8 ± 0.3 | 0.7 ± 0.2 | 0.2 ± 0.2 | 0.3 ± 0.2 | 0.5 ± 0.2 | 0.5 ± 0.2 | 0.4 ± 0.2 | 0.3 ± 0.2 | Acute Toxicity (MLD) po [1, 5]: > 300 mg/kg; Number of Obstruction Case/Number of Experiments ([3]; 0.1 mg/kg i.v.): 4/6; Percent Obstruction ([3]; 0.1 mg/kg i.v.): 67%; Number of Obstruction Case/Number of Experiments ([3]; 0.3 mg/kg i.v.): 1/5; Percent Obstruction ([3]; 0.3 mg/kg i.v.): 20%; inhibition of obstruction vs comparative drugs CV-4151 and OKY-1581 (in words) ([3]; i.v.): inhibition of obstruction at lower doses as compared with the comparative drugs, CV-4151 and OKY-1581
COC1=Nc2ccncc2/C(=C/CCCCC(=O)O)c2ccccc21 [Compound I-13E, (E)-11-(5-Carboxypentylidene)-6-methoxy-11H-pyrido[4,3-c][2]benzazepin] | > 100 mg/kg | 8.4 nM | 3/4 | 75% | 1/5 | 20% | significantly lower than that of the control group | significantly smaller than those in the control groups | 0 ± 0 | 0.2 ± 0.2 | 0.2 ± 0.2 | 0.2 ± 0.2 | 0.6 ± 0.4 | 0.2 ± 0.2 | 0.4 ± 0.2 | 0.4 ± 0.2 | 0.4 ± 0.2 | 0.4 ± 0.2 | 0.2 ± 0.2 | Acute Toxicity (MLD) po ([1]; mouse, in vivo, 10080 min): > 300 mg/kg
